Assay results as given in ChEMBL document CHEMBL5653615 (J Biol Chem, 2013).

Assays:
[1] = target: T1, Mitogen-activated protein kinase kinase kinase 3 (Homo sapiens) (UniProt Q99759); assay: Inhibition of human MEKK3 at 500 nM by HotSpot assay relative to control
T1 sequence (whole entry): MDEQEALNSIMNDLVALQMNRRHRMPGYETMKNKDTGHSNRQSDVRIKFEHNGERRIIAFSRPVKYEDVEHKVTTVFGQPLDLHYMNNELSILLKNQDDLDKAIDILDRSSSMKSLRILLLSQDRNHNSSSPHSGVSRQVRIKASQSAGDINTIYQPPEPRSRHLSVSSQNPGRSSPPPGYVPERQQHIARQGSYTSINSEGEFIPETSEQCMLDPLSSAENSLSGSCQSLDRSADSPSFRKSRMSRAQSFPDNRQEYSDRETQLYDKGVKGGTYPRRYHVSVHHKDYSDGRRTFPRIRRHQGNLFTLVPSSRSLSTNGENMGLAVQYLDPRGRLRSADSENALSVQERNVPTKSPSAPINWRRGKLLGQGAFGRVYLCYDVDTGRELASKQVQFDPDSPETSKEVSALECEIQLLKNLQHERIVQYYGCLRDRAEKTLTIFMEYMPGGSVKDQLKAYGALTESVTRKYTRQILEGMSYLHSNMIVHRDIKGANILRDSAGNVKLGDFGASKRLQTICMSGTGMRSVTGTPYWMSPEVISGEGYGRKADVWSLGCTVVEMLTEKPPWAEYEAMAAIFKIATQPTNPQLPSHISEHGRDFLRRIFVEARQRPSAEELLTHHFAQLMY

[2] = target: Casein kinase II subunit alpha' (Homo sapiens) (UniProt P19784); assay: Inhibition of human CK2a2 at 500 nM by HotSpot assay relative to control
Sequence of Casein kinase II subunit alpha' (Homo sapiens) (P19784 whole entry, looked up, the tested form may be a part): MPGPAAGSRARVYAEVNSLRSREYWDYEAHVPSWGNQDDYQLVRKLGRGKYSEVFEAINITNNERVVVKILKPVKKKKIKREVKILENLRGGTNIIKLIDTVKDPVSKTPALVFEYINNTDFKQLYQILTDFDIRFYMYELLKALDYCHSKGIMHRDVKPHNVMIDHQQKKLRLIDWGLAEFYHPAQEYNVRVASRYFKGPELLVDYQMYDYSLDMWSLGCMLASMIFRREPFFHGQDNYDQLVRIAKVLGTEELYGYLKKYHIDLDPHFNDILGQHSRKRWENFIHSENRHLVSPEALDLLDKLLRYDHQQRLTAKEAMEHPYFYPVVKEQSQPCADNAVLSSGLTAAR

[3] = target: T2, Discoidin domain-containing receptor 2 (Homo sapiens) (UniProt Q16832); assay: Inhibition of human DDR2 at 500 nM by HotSpot assay relative to control
T2 sequence (whole entry): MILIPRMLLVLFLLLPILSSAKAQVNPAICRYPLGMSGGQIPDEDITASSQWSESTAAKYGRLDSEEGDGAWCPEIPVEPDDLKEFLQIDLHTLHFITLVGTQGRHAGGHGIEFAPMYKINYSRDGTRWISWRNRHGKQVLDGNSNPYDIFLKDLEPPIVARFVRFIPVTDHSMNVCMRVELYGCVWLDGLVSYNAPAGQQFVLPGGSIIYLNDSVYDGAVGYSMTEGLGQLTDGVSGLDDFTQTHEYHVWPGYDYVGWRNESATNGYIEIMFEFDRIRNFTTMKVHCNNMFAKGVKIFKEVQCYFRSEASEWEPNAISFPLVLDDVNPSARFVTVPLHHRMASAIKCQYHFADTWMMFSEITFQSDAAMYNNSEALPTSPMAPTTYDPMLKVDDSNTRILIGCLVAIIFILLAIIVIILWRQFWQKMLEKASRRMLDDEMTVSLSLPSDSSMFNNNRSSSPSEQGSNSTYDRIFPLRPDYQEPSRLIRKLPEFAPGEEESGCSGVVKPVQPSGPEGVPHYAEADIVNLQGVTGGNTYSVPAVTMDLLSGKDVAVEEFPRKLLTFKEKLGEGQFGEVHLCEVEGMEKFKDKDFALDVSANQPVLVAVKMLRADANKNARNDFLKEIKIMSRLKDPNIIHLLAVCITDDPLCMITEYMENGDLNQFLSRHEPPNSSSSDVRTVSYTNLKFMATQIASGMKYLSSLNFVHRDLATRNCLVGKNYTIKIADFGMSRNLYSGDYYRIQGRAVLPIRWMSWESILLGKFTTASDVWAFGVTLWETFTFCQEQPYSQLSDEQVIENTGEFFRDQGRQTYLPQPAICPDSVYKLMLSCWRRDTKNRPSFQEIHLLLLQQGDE

[4] = target: T3, Testis-specific serine/threonine-protein kinase 1 (Homo sapiens) (UniProt Q9BXA7); assay: Inhibition of human TSSK1 at 500 nM by HotSpot assay relative to control
T3 sequence (whole entry): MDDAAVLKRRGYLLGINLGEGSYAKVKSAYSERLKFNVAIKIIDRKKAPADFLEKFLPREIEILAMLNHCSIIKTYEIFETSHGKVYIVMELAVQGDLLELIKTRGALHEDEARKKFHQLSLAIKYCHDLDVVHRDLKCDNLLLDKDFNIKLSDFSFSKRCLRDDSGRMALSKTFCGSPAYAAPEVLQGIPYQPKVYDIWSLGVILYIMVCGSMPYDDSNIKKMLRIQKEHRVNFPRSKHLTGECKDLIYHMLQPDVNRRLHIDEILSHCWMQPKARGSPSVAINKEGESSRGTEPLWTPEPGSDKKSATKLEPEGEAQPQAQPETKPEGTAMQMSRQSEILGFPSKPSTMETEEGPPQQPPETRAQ

[5] = target: Ribosomal protein S6 kinase alpha-4 (Homo sapiens) (UniProt O75676); assay: Inhibition of human RPS6KA4 at 500 nM by HotSpot assay relative to control
Sequence of Ribosomal protein S6 kinase alpha-4 (Homo sapiens) (O75676 whole entry, looked up): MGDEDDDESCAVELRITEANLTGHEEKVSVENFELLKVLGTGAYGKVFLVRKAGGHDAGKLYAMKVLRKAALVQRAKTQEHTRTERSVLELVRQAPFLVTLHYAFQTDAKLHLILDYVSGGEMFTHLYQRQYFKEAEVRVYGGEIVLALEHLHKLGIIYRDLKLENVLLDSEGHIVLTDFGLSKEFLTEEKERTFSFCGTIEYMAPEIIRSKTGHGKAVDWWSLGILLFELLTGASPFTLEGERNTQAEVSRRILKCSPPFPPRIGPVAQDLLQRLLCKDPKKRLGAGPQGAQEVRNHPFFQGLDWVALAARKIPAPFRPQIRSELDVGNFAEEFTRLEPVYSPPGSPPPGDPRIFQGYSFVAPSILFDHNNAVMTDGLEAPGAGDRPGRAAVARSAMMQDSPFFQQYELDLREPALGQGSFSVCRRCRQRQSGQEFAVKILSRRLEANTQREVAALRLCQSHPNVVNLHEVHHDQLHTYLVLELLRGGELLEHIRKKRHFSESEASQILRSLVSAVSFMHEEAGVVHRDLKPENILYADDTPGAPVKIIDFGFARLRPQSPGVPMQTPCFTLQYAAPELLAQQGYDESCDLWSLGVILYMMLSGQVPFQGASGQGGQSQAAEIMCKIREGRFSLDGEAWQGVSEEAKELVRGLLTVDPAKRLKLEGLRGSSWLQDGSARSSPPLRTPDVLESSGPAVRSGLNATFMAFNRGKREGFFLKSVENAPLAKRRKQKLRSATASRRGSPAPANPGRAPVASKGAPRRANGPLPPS

[6] = target: Vascular endothelial growth factor receptor 2 (Homo sapiens) (UniProt P35968); assay: Inhibition of human KDR at 500 nM by HotSpot assay relative to control
Sequence of Vascular endothelial growth factor receptor 2 (Homo sapiens) (P35968 whole entry): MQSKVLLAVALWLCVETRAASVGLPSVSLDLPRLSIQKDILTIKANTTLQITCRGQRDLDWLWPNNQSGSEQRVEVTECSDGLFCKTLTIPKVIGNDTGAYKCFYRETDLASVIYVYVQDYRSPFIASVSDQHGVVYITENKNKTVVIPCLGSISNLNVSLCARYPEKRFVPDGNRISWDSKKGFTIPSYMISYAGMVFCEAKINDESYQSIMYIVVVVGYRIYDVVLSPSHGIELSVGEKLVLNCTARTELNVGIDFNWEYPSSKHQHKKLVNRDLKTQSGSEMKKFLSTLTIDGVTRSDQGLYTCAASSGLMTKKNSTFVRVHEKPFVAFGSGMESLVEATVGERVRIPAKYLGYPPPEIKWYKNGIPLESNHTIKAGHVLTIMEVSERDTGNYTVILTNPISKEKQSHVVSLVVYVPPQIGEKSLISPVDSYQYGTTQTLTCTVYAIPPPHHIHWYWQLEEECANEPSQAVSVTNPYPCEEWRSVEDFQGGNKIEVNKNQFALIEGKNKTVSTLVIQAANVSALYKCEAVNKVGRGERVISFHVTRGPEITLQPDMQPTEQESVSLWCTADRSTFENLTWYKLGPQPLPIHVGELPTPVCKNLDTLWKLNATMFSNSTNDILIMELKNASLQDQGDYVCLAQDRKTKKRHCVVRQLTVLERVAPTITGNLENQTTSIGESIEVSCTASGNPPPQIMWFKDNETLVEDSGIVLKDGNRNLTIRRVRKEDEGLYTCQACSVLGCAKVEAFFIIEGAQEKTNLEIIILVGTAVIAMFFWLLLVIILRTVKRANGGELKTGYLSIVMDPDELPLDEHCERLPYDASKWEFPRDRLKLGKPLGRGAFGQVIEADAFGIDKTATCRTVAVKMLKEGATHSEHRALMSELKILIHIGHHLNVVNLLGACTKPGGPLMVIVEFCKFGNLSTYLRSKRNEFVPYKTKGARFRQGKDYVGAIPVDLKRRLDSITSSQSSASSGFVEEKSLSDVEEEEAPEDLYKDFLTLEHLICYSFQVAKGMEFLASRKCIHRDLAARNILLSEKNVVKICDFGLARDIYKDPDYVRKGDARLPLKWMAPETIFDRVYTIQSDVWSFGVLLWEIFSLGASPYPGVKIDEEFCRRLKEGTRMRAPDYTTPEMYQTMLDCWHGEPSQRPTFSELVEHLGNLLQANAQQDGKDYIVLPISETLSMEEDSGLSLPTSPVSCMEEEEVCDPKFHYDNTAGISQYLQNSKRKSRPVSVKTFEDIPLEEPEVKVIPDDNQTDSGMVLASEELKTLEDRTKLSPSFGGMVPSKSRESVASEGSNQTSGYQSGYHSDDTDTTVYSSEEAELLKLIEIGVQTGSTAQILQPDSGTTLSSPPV

[7] = target: T4, Mitogen-activated protein kinase 12 (Homo sapiens) (UniProt P53778); assay: Inhibition of human P38g at 500 nM by HotSpot assay relative to control
T4 sequence (whole entry): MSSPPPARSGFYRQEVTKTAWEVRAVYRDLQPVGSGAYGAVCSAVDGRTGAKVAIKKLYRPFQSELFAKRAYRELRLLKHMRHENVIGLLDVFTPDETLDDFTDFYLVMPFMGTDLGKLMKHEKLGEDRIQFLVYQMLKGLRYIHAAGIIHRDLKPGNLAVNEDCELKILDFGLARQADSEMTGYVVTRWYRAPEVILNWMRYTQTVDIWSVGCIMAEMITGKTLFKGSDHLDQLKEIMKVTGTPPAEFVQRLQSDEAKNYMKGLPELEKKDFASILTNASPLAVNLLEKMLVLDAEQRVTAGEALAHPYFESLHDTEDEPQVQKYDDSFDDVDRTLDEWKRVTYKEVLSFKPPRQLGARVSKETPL

| Compound | inhibition [1] [%] | inhibition [2] [%] | inhibition [3] [%] | inhibition [4] [%] | inhibition [5] [%] | inhibition [6] [%] | inhibition [7] [%] |
| --- | --- | --- | --- | --- | --- | --- | --- |
| Nc1n[nH]c2nnc(-c3c(-c4ccccc4)nn4ccccc34)cc12 | -9.53 | 6.59 | -0.55 | -1.56 | 5.31 | -1.19 | -3.94 |
| Oc1n[nH]c2nnc(-c3c(-c4ccccc4)nn4ccccc34)cc12 | -4.26 | 6.97 | -2.78 | -0.04 | 1.99 | -5.2 | -4.33 |
